Laboratory results published in the supplement of paper PMC10307832.

How the values were obtained:
Assay in all cases: relative viability (nuclei count vs DMSO), 5 days (fraction); higher = more cells survive
AT9283 + AZD7762 = compound: O=C(Nc1c[nH]nc1-c1nc2ccc(CN3CCOCC3)cc2[nH]1)NC1CC1 [AT9283] + NC(=O)Nc1cc(-c2cccc(F)c2)sc1C(=O)N[C@H]1CCCNC1 [AZD7762] (partner 0.2 µM)
Procedure, shortened: (§1)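 Each reported value is a median over duplicate plates. It expresses relative viability: treated-well nuclei count divided by vehicle-well nuclei count. Lung cancer cell lines in 1536-well plates were dosed by pin tool a day after seeding, alone with one drug or with a fixed anchor-drug dose plus five library-drug doses (not always all listed) in √10 steps, and nuclei were counted after 5 days.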

AT9283 + Lapatinib = compound: O=C(Nc1c[nH]nc1-c1nc2ccc(CN3CCOCC3)cc2[nH]1)NC1CC1 [AT9283] + CS(=O)(=O)CCNCc1ccc(-c2ccc3ncnc(Nc4ccc(OCc5cccc(F)c5)c(Cl)c4)c3c2)o1 [Lapatinib] (partner 2 µM)
Procedure, shortened: as §1

Erlotinib + Linsitinib = compound: C#Cc1cccc(Nc2ncnc3cc(OCCOC)c(OCCOC)cc23)c1 [Erlotinib] + C[C@]1(O)C[C@@H](c2nc(-c3ccc4ccc(-c5ccccc5)nc4c3)c3c(N)nccn32)C1 [Linsitinib] (partner 1 µM)
Procedure, shortened: as §1

AT9283 + Trametinib = compound: O=C(Nc1c[nH]nc1-c1nc2ccc(CN3CCOCC3)cc2[nH]1)NC1CC1 [AT9283] + CC(=O)Nc1cccc(-n2c(=O)n(C3CC3)c(=O)c3c(Nc4ccc(I)cc4F)n(C)c(=O)c(C)c32)c1 [Trametinib] (partner 0.02 µM)
Procedure, shortened: as §1

AT9283 + Dasatinib = compound: O=C(Nc1c[nH]nc1-c1nc2ccc(CN3CCOCC3)cc2[nH]1)NC1CC1 [AT9283] + Cc1nc(Nc2ncc(C(=O)Nc3c(C)cccc3Cl)s2)cc(N2CCN(CCO)CC2)n1 [Dasatinib] (partner 0.075 µM)
Procedure, shortened: as §1

NCI-H1666
relative viability (AT9283 + AZD7762; first compound 0.003 µM): 0.817
relative viability (AT9283 + AZD7762; first compound 0.03 µM): 0.685
relative viability (AT9283 + AZD7762; first compound 0.09487 µM): 0.733
relative viability (AT9283 + AZD7762; first compound 0.3 µM): 0.491
relative viability (AT9283 + Lapatinib; first compound 0.003 µM): 0.634
relative viability (AT9283 + Lapatinib; first compound 0.03 µM): 0.386
relative viability (AT9283 + Lapatinib; first compound 0.09487 µM): 0.243
relative viability (AT9283 + Lapatinib; first compound 0.3 µM): 0.321
relative viability (Erlotinib + Linsitinib; first compound 0.02 µM): 0.82
relative viability (Erlotinib + Linsitinib; first compound 0.2 µM): 0.696
relative viability (Erlotinib + Linsitinib; first compound 0.6325 µM): 0.62
relative viability (Erlotinib + Linsitinib; first compound 2 µM): 0.496
relative viability (AT9283 + Trametinib; first compound 0.003 µM): 0.852
relative viability (AT9283 + Trametinib; first compound 0.03 µM): 0.721
relative viability (AT9283 + Trametinib; first compound 0.09487 µM): 0.637
relative viability (AT9283 + Trametinib; first compound 0.3 µM): 0.474
relative viability (AT9283 + Dasatinib; first compound 0.003 µM): 0.866
relative viability (AT9283 + Dasatinib; first compound 0.03 µM): 0.682
relative viability (AT9283 + Dasatinib; first compound 0.09487 µM): 0.574
relative viability (AT9283 + Dasatinib; first compound 0.3 µM): 0.431

NCI-H322M
relative viability (AT9283 + AZD7762; first compound 0.003 µM): 0.554
relative viability (AT9283 + AZD7762; first compound 0.03 µM): 0.395
relative viability (AT9283 + AZD7762; first compound 0.09487 µM): 0.46
relative viability (AT9283 + AZD7762; first compound 0.3 µM): 0.487
relative viability (AT9283 + Lapatinib; first compound 0.003 µM): 0.548
relative viability (AT9283 + Lapatinib; first compound 0.03 µM): 0.272
relative viability (AT9283 + Lapatinib; first compound 0.09487 µM): 0.32
relative viability (AT9283 + Lapatinib; first compound 0.3 µM): 0.335
relative viability (Erlotinib + Linsitinib; first compound 0.02 µM): 0.8
relative viability (Erlotinib + Linsitinib; first compound 0.2 µM): 0.727
relative viability (Erlotinib + Linsitinib; first compound 0.6325 µM): 0.512
relative viability (Erlotinib + Linsitinib; first compound 2 µM): 0.337
relative viability (AT9283 + Trametinib; first compound 0.003 µM): 0.486
relative viability (AT9283 + Trametinib; first compound 0.03 µM): 0.49
relative viability (AT9283 + Trametinib; first compound 0.09487 µM): 0.407
relative viability (AT9283 + Trametinib; first compound 0.3 µM): 0.405
relative viability (AT9283 + Dasatinib; first compound 0.003 µM): 0.257
relative viability (AT9283 + Dasatinib; first compound 0.03 µM): 0.236
relative viability (AT9283 + Dasatinib; first compound 0.09487 µM): 0.224
relative viability (AT9283 + Dasatinib; first compound 0.3 µM): 0.223

LC-2-ad
relative viability (AT9283 + AZD7762; first compound 0.003 µM): 0.848
relative viability (AT9283 + AZD7762; first compound 0.03 µM): 0.794
relative viability (AT9283 + AZD7762; first compound 0.09487 µM): 0.398
relative viability (AT9283 + AZD7762; first compound 0.3 µM): 0.227
relative viability (AT9283 + Lapatinib; first compound 0.003 µM): 0.938
relative viability (AT9283 + Lapatinib; first compound 0.03 µM): 0.0948
relative viability (AT9283 + Lapatinib; first compound 0.09487 µM): 0.0976
relative viability (AT9283 + Lapatinib; first compound 0.3 µM): 0.0947
relative viability (Erlotinib + Linsitinib; first compound 0.02 µM): 0.889
relative viability (Erlotinib + Linsitinib; first compound 0.2 µM): 0.823
relative viability (Erlotinib + Linsitinib; first compound 0.6325 µM): 0.76
relative viability (Erlotinib + Linsitinib; first compound 2 µM): 0.611
relative viability (AT9283 + Trametinib; first compound 0.003 µM): 0.872
relative viability (AT9283 + Trametinib; first compound 0.03 µM): 0.707
relative viability (AT9283 + Trametinib; first compound 0.09487 µM): 0.5
relative viability (AT9283 + Trametinib; first compound 0.3 µM): 0.236
relative viability (AT9283 + Dasatinib; first compound 0.003 µM): 0.456
relative viability (AT9283 + Dasatinib; first compound 0.03 µM): 0.291
relative viability (AT9283 + Dasatinib; first compound 0.09487 µM): 0.177
relative viability (AT9283 + Dasatinib; first compound 0.3 µM): 0.187

HCC-827
relative viability (AT9283 + AZD7762; first compound 0.003 µM): 0.234
relative viability (AT9283 + AZD7762; first compound 0.03 µM): 0.169
relative viability (AT9283 + AZD7762; first compound 0.09487 µM): 0.145
relative viability (AT9283 + AZD7762; first compound 0.3 µM): 0.153
relative viability (AT9283 + Lapatinib; first compound 0.003 µM): 0.195
relative viability (AT9283 + Lapatinib; first compound 0.03 µM): 0.216
relative viability (AT9283 + Lapatinib; first compound 0.09487 µM): 0.191
relative viability (AT9283 + Lapatinib; first compound 0.3 µM): 0.164
relative viability (Erlotinib + Linsitinib; first compound 0.02 µM): 0.281
relative viability (Erlotinib + Linsitinib; first compound 0.2 µM): 0.188
relative viability (Erlotinib + Linsitinib; first compound 0.6325 µM): 0.173
relative viability (Erlotinib + Linsitinib; first compound 2 µM): 0.166
relative viability (AT9283 + Trametinib; first compound 0.003 µM): 0.492
relative viability (AT9283 + Trametinib; first compound 0.03 µM): 0.437
relative viability (AT9283 + Trametinib; first compound 0.09487 µM): 0.257
relative viability (AT9283 + Trametinib; first compound 0.3 µM): 0.204
relative viability (AT9283 + Dasatinib; first compound 0.003 µM): 0.271
relative viability (AT9283 + Dasatinib; first compound 0.03 µM): 0.266
relative viability (AT9283 + Dasatinib; first compound 0.09487 µM): 0.26
relative viability (AT9283 + Dasatinib; first compound 0.3 µM): 0.205
